Drawing on ChEMBL document CHEMBL1255346 (2008), this text covers MIC for 14 molecules.

Values after ≈ are worked out from the molar mass of the structure shown.

Experiment [1] has as its system Escherichia coli. Briefly: Antibacterial activity against Escherichia coli EC600 transconjugant harboring beta-lactamase KPC-2 by agar dilution method. It is filed as functional. (Agar dilution tests growth on a series of plates holding different concentrations.)
Experiment [2] deals with Serratia marcescens. Briefly: Antibacterial activity against beta-lactamase KPC-2 producing Serratia marcescens isolate S1 to S21 by agar dilution method.
Experiment [3] deals with Klebsiella pneumoniae. The experiment in a line: Antibacterial activity against beta-lactamase KPC-2 producing Klebsiella pneumoniae isolate K1 to K9 by agar dilution method. The format is functional.
Experiment [4] relates to Klebsiella pneumoniae. The experiment in a line: Antibacterial activity against beta-lactamase KPC-2 producing Klebsiella pneumoniae isolate K10 by agar dilution method. The format is functional.
The test system of experiment [5] is Escherichia coli. Briefly: Antibacterial activity against Escherichia coli EC600 by agar dilution method. The format is functional.
Experiment [6] deals with Escherichia coli. Briefly: microbe, parasite or virus in culture. The following applies: isolate E1.
Description: (§1) Antibacterial activity against beta-lactamase KPC-2 producing Escherichia coli isolate E1 by agar dilution method
Experiment [7] has as its system Klebsiella pneumoniae. The experiment in a line: Antibacterial activity against beta-lactamase KPC-2 producing Klebsiella pneumoniae isolate K1 to K9 in presence of Tazobactam by agar dilution method. The format is functional.
In experiment [8] the test system is Escherichia coli. The experiment in a line: Antibacterial activity against beta-lactamase KPC-2 producing Escherichia coli isolate E1 in presence of Tazobactam by agar dilution method. It is filed as functional.
Experiment [9] concerns Serratia marcescens. The experiment in a line: Antibacterial activity against beta-lactamase KPC-2 producing Serratia marcescens isolate S1 to S21 in presence of Tazobactam by agar dilution method. It is filed as functional.
Experiment [10] concerns Klebsiella pneumoniae. Briefly: Antibacterial activity against beta-lactamase KPC-2 producing Klebsiella pneumoniae isolate K10 in presence of Tazobactam by agar dilution method. It is filed as functional.
In experiment [11] the test system is Escherichia coli. The experiment in a line: Antibacterial activity against Escherichia coli EC600 transconjugant harboring beta-lactamase KPC-2 in presence of Tazobactam by agar dilution method. It is filed as functional.
Experiment [12] relates to Escherichia coli. Briefly: Antibacterial activity against Escherichia coli EC600 in presence of Tazobactam by agar dilution method. It is filed as functional.
For experiment [13], the system named is Escherichia coli. The following applies: isolate E1.
Description: as §1
Experiment [14] deals with Klebsiella pneumoniae. Briefly: Antibacterial activity against beta-lactamase KPC-2 producing Klebsiella pneumoniae isolate K1 to K9 in presence of Sulbactam by agar dilution method. The format is functional.
Experiment [15] relates to Escherichia coli. The experiment in a line: Antibacterial activity against Escherichia coli EC600 transconjugant harboring beta-lactamase KPC-2 in presence of Sulbactam by agar dilution method.
For experiment [16], the system named is Klebsiella pneumoniae. The experiment in a line: Antibacterial activity against beta-lactamase KPC-2 producing Klebsiella pneumoniae isolate K10 in presence of Sulbactam by agar dilution method. The format is functional.
Experiment [17] has as its system Escherichia coli. Briefly: Antibacterial activity against Escherichia coli EC600 in presence of Sulbactam by agar dilution method. The format is functional.
Experiment [18] has as its system Escherichia coli. The experiment in a line: microbe, parasite or virus in culture. The following applies: isolate E1. The source holds these as a separate data set.
Description: Antibacterial activity against beta-lactamase KPC-2 producing Escherichia coli isolate E1 in presence of Sulbactam by agar dilution method
For experiment [19], the system named is Serratia marcescens. Briefly: Antibacterial activity against beta-lactamase KPC-2 producing Serratia marcescens isolate S1 to S21 in presence of Sulbactam by agar dilution method. It is filed as functional.

On to `CO/N=C(\C(=O)N[C@@H]1C(=O)N2C(C(=O)O)=C(CSc3nc(=O)c(O)nn3C)CS[C@H]12)c1csc(N)n1` [CEFTRIAXONE], for which the MIC in experiment [1] is 32 µg/mL (≈ 57.7 µM); in [2] it was 32 µg/mL (≈ 57.7 µM); in experiment [3] it was 256 µg/mL (≈ 462 µM); in [4] it was > 256 µg/mL; in experiment [5], ≤ 0.125 µg/mL; in experiment [6] it was > 256 µg/mL.

Turning to `CO/N=C(\C(=O)N[C@@H]1C(=O)N2C(C(=O)[O-])=C(C[N+]3(C)CCCC3)CS[C@H]12)c1csc(N)n1`, the MIC in [1] is 8 µg/mL (≈ 16.6 µM); in experiment [2], 8 µg/mL (≈ 16.6 µM); in [4], 256 µg/mL (≈ 533 µM); in [5], ≤ 0.125 µg/mL; in experiment [6], 64 µg/mL (≈ 133 µM).

Turning to `CC(C)(O/N=C(\C(=O)N[C@@H]1C(=O)N2C(C(=O)[O-])=C(C[n+]3ccccc3)CS[C@H]12)c1csc(N)n1)C(=O)O` [CEFTAZIDIME], the MIC is 16 µg/mL (≈ 29.3 µM) in [1]; 8 µg/mL (≈ 14.6 µM) in [2]; 64 µg/mL (≈ 117 µM) in experiment [3]; 256 µg/mL (≈ 468 µM) in experiment [4]; 0.25 µg/mL (≈ 0.457 µM) in experiment [5]; 64 µg/mL (≈ 117 µM) in experiment [6].

Regarding `C[C@@H](O)[C@H]1C(=O)N2C(C(=O)O)=C(SCCNC=N)C[C@H]12` [IMIPENEM ANHYDROUS], the MIC in experiment [1] was 1 µg/mL (≈ 3.34 µM); in experiment [2] it was 4 µg/mL (≈ 13.4 µM); in experiment [3], 2 µg/mL (≈ 6.68 µM); in experiment [4], 128 µg/mL (≈ 428 µM); in experiment [5], ≤ 0.125 µg/mL; in [6], 2 µg/mL (≈ 6.68 µM).

For `CO[C@@]1(NC(=O)Cc2cccs2)C(=O)N2C(C(=O)O)=C(COC(N)=O)CS[C@@H]21` [CEFOXITIN], the MIC in experiment [1] is 16 µg/mL (≈ 37.4 µM); in experiment [2], 16 µg/mL (≈ 37.4 µM); in [3] it was 8 µg/mL (≈ 18.7 µM); in experiment [4] it was 256 µg/mL (≈ 599 µM); in experiment [5], 8 µg/mL (≈ 18.7 µM); in experiment [6], 32 µg/mL (≈ 74.9 µM).

`C[C@@H](O)[C@H]1C(=O)N2C(C(=O)O)=C(S[C@@H]3CN[C@H](C(=O)N(C)C)C3)[C@H](C)[C@H]12` [MEROPENEM]: the MIC was 2 µg/mL (≈ 5.22 µM) in experiment [1]; 2 µg/mL (≈ 5.22 µM) in experiment [2]; 256 µg/mL (≈ 668 µM) in experiment [4]; ≤ 0.125 µg/mL in experiment [5]; 2 µg/mL (≈ 5.22 µM) in [6].

Regarding `C[C@H]1[C@H](NC(=O)/C(=N\OC(C)(C)C(=O)O)c2csc(N)n2)C(=O)N1S(=O)(=O)O` [AZTREONAM], the MIC was 128 µg/mL (≈ 294 µM) in experiment [1]; 128 µg/mL (≈ 294 µM) in experiment [2]; 256 µg/mL (≈ 588 µM) in experiment [3]; > 256 µg/mL in experiment [4]; ≤ 0.125 µg/mL in experiment [5]; 256 µg/mL (≈ 588 µM) in experiment [6].

In the case of `CCN1CCN(C(=O)N[C@@H](C(=O)N[C@@H]2C(=O)N3[C@@H]2SC(C)(C)[C@@H]3C(=O)O)c2ccccc2)C(=O)C1=O` [PIPERACILLIN], the MIC in experiment [1] is 256 µg/mL (≈ 495 µM); in experiment [2], 256 µg/mL (≈ 495 µM); in experiment [4] it was > 256 µg/mL; in experiment [7], > 256 µg/mL; in experiment [5], 1 µg/mL (≈ 1.93 µM); in [8] it was 256 µg/mL. Also, the MIC in experiment [9] was 128 µg/mL; in experiment [10] it was > 256 µg/mL; in experiment [6], > 256 µg/mL; in [11] it was 256 µg/mL; in experiment [12] it was 1 µg/mL.

Take `CO/N=C(\C(=O)N[C@@H]1C(=O)N2C(C(=O)O)=C(COC(C)=O)CS[C@H]12)c1csc(N)n1` [CEFOTAXIME]: the MIC is 8 µg/mL (≈ 17.6 µM) in [1]; 16 µg/mL (≈ 35.1 µM) in experiment [2]; 128 µg/mL (≈ 281 µM) in experiment [3]; 256 µg/mL (≈ 562 µM) in experiment [4]; ≤ 0.125 µg/mL in [5]; 256 µg/mL (≈ 562 µM) in [6].

Turning to `O=C(O)c1cn(C2CC2)c2cc(N3CCNCC3)c(F)cc2c1=O` [CIPROFLOXACIN], the MIC in [6] is > 32 µg/mL.

On to `CC1(C)S[C@@H]2[C@H](NC(=O)[C@H](N)c3ccccc3)C(=O)N2[C@H]1C(=O)O` [AMPICILLIN], for which the MIC was > 256 µg/mL in experiment [1]; > 256 µg/mL in experiment [2]; > 256 µg/mL in experiment [3]; > 256 µg/mL in experiment [4]; 8 µg/mL (≈ 22.9 µM) in experiment [5]; > 256 µg/mL in [6].

`C[C@@H](O)[C@H]1C(=O)N2C(C(=O)O)=C(S[C@@H]3CN[C@H](C(=O)Nc4cccc(C(=O)O)c4)C3)[C@H](C)[C@H]12`: the MIC was 4 µg/mL (≈ 8.41 µM) in experiment [1]; 4 µg/mL (≈ 8.41 µM) in [2]; 8 µg/mL (≈ 16.8 µM) in [3]; > 256 µg/mL in experiment [4]; ≤ 0.125 µg/mL in experiment [5]; 8 µg/mL (≈ 16.8 µM) in experiment [6].

As to GENTAMICIN, the MIC in experiment [1] is 0.25 µg/mL; in experiment [3], > 256 µg/mL; in experiment [13], 64 µg/mL; in experiment [4], > 256 µg/mL; in experiment [5] it was 0.25 µg/mL.

In the case of `CCN1CCN(C(=O)N[C@@H](C(=O)N[C@@H]2C(=O)N3C(C(=O)O)=C(CSc4nnnn4C)CS[C@H]23)c2ccc(O)cc2)C(=O)C1=O` [CEFOPERAZONE], the MIC in experiment [14] is 128 µg/mL; in experiment [15], 32 µg/mL; in experiment [16] it was > 256 µg/mL; in experiment [17] it was ≤ 0.125 µg/mL; in experiment [18], 128 µg/mL (≈ 198 µM); in [19] it was 32 µg/mL.
